Measured values reported in patent publication US11384078B2, “5,6-fused-bicyclic compounds and compositions for the treatment of parasitic diseases” (NOVARTIS AG, priority 2017, dated 2022).
Read-outs that look alike come from different tables or passages of the source.

Columns and labels:
Assay type in all cases: cell-based
[1] = tested on: Leishmania donovani axenic amastigote; test: In vitro assay for growth inhibition of Leishmania donovani axenic amastigote (Cell TiterGlo luminescence); conditions: Leishmania donovani, L. donovani axenic amastigotes in vitro; read-out: L. donovani amastigotes EC50
In short: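 Compound-treated wells received 9600 axenic amastigotes in RPMI 1640-based medium at pH 5.5 (37 °C, 5% CO2). Growth measured as ATP luminescence (CellTiter-Glo) after 2-day incubation; DMSO and reference compounds served as controls.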

[2] = tested on: Trypanosoma brucei brucei (Lister 427) strain; test: Assay for growth inhibition against Trypanosoma brucei brucei (Cell TiterGlo ATP luminescence); conditions: Trypanosoma brucei, T. brucei brucei (Lister 427); read-out: T. Brucei (HAT) EC50
In short: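 Growth read-out is cellular ATP by CellTiter-Glo luminescence, measured 30 min after reagent addition, following 2-day incubation at 37 °C in CO2. Parasites (10,000/mL, HMI-9 plus 10% FBS and 10% serum plus) faced 10 threefold dilutions in duplicate; IC50 taken as 50% growth inhibition versus untreated.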

[3] = tested on: Trypanosoma cruzi amastigotes cultured in 3T3 fibroblast cells; test: Assay for growth inhibition of kinetoplastid parasite Trypanosoma cruzi (beta-galactosidase Tulahuen strain, CPRG readout); conditions: Trypanosoma cruzi, T. cruzi amastigotes in 3T3 fibroblast cells, read-out: Buckner infectious T. cruzi EC50
In short: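 3T3 fibroblasts (1,000 cells/well) plated overnight, treated with compound in DMSO, then infected with 10,000 Lac-Z-expressing Tulahuen trypomastigotes. After 6 days, 0.6 mM CPRG with 0.6% NP-40 added for 2 h at room temperature; absorbance gives relative intracellular amastigote numbers. Benznidazole and nifurtimox serve as positive controls.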

[4] = tested on: L. donovani HU3 strain in mouse peritoneal macrophages; test: Assay for inhibition of parasitemia of Leishmania donovani in mouse macrophages (SYBR Green nuclei count, high-content imaging); conditions: Leishmania donovani, Peritoneal macrophage, read-out: L. donovani in Mouse Macrophages EC50
From the text: Assay for Inhibition of Parasitemia of Leishmania donovani in Mouse Macrophages
The assay measures the increase in the parasite number in the assayed plate well using a DNA intercalating dye, SYBR Green I® dye (INVITROGEN) to stain Leishmania cell nuclei. L. donovani HU3 strain is propagated by infecting BALB/c mice through tail vein injection with 10^7 Leishmania parasites. Infected mice are allowed to develop infection during 9-11 weeks post-infection. During this time, the parasites accumulate in the infected mouse spleens to large numbers, and the infected mice serve as the source of parasites for the in vitro measurement of compound efficacies. To assay a compound for anti-leishmanial activity, peritoneal macrophages isolated from non-infected BALB/c mice are seeded into 384-well plates at density 2×10^4 macrophages per well in […] of medium (RPM11640, 10% fetal serum albumin, 10 mM HEPES, 1 mM sodium pyruvate, 1% Pen/Strep). Subsequently, the seeded plates are placed into an incubator set to maintain 37° C. temperature and atmosphere with 5% CO2.
The next day, Leishmania parasites are isolated from the spleens of mice infected for 9-11 weeks and 4×10^5 isolated parasites in […] of the above media are added to each plate well. Plates are then returned into incubators and infection is allowed to proceed for 24 hours. After the infection of macrophages is completed, […] of compounds of the invention in the above medium, which also contains 5% DMSO, are added to plate wells containing infected macrophages. At the same time control compounds (miltefosine and amphotericin B) and DMSO are added to plates to serve as the positive and negative controls, respectively. After the compound addition, the plates are returned into incubator and cells infected with parasites are cultured for 5 days. At the end of cultivation, […] of 8% paraformaldehyde is added to plate wells and incubated for 15 min at room temperature. Following the incubation, the paraformaldehyde from plate wells is aspirated, and […] of PBS containing 0.2% Triton X-100 is added to wells. After 15 min incubation, the solution is aspirated from wells again, and replaced with Sybr® Green Dye solution in PBS (1:125,000 dilution). Infected cells are imaged with Evotec Opera high-content microscope, and the number of parasites in well is determined by counting parasite nuclei visualized by staining with Sybr® Green dye.

[5] = L. donovani in mouse peritoneal macrophages

| Structure (SMILES) | EC50 [1] [µM] | EC50 [2] [µM] | EC50 ([3]; Fibroblast) [µM] | EC50 [4, 5] [µM] | EC50 [3] [µM] | EC50 [4] [µM] |
| --- | --- | --- | --- | --- | --- | --- |
| O=C(Nc1ccc(F)c(-n2cc3cc(N4CC(F)(F)C4)cnc3n2)c1)[C@H]1C[C@@H]1F (single isomer, unassigned) [Compound 339] | 1.59 | 0.163 | 0.112 | 0.31 | – | – |
| Cc1cccnc1-c1cnc2nn(-c3cc(NC(=O)c4ccco4)ccc3F)cc2c1 [Compound 2, N-(4-fluoro-3-(5-(3-methylpyridin-2-yl)-2H-pyrazolo[3,4-b]pyridin-2-yl)phenyl)furan-2-carboxamide] | 0.003 | < 0.023 | 0.001 | 0.0044 | – | – |
| Cc1cccnc1-c1cnc2nn(-c3cc(NC(=O)N4CCC4)ccc3F)cc2c1 [Compound 3, N-(4-fluoro-3-(5-(3-methylpyridin-2-yl)-2H-pyrazolo[3,4-b]pyridin-2-yl)phenyl)azetidine-1-carboxamide] | 0.0018 | < 0.023 | 0.0016 | 0.002 | – | – |
| CC(C)Cc1cnc2nn(-c3cc(NC(=O)N4CCC4)ccc3F)cc2c1 [Compound 7, N-(4-fluoro-3-(5-isobutyl-2H-pyrazolo[3,4-b]pyridin-2-yl)phenyl)azetidine-1-carboxamide] | 0.0077 | < 0.023 | 0.0016 | 0.004 | – | – |
| CC(C)Cc1cnc2nn(-c3cc(NC(=O)N4CC(F)(F)C4)ccc3F)cc2c1 [Compound 8, 3,3-difluoro-N-(4-fluoro-3-(5-isobutyl-2H-pyrazolo[3,4-b]pyridin-2-yl)phenyl)azetidine-1-carboxamide] | 0.0077 | < 0.023 | 0.0045 | 0.0033 | – | – |
| CN(C)c1cnc2nn(-c3cc(NC(=O)N4CC(F)(F)C4)ccc3F)cc2c1 [Compound 9, N-(3-(5-(dimethylamino)-2H-pyrazolo[3,4-b]pyridin-2-yl)-4-fluorophenyl)-3,3-difluoroazetidine-1-carboxamide] | 0.0087 | 0.035 | 0.0098 | 0.011 | – | – |
| O=C(Nc1ccc(F)c(-n2cc3cc(N4CCC4)cnc3n2)c1)N1CCC1 [Compound 10, N-(3-(5-(azetidin-1-yl)-2H-pyrazolo[3,4-b]pyridin-2-yl)-4-fluorophenyl)azetidine-1-carboxamide] | 0.016 | < 0.023 | – | – | 0.0048 | 0.0078 |
| CC(C)Cc1cnc2nn(-c3cc(NC(=O)N4CC(F)C4)ccc3F)cc2c1 [Compound 14, 3-fluoro-N-{4-fluoro-3-[5-(2-methylpropyl)-2H-pyrazolo[3,4-b]pyridin-2-yl]phenyl}azetidine-1-carboxamide] | 0.012 | < 0.023 | 0.002 | 0.0097 | – | – |
| O=C(Nc1ccc(F)c(-n2cc3cc(C4CC4)cnc3n2)c1)N1CC(F)C1 [Compound 15, N-(3-{5-cyclopropyl-2H-pyrazolo[3,4-b]pyridin-2-yl}-4-fluorophenyl)-3-fluoroazetidine-1-carboxamide] | 0.013 | < 0.023 | 0.005 | 0.017 | – | – |
| O=C(Nc1ccc(F)c(-n2cc3cc(C4CCCCC4)cnc3n2)c1)N1CC(F)C1 [Compound 19, N-(3-{5-cyclohexyl-2H-pyrazolo[3,4-b]pyridin-2-yl}-4-fluorophenyl)-3-fluoroazetidine-1-carboxamide] | 0.011 | < 0.023 | 0.011 | 0.081 | – | – |
| O=C(Nc1ccc(F)c(-n2cc3cc(C4CCC4)cnc3n2)c1)N1CC(F)C1 [Compound 20, N-(3-{5-cyclobutyl-2H-pyrazolo[3,4-b]pyridin-2-yl}-4-fluorophenyl)-3-fluoroazetidine-1-carboxamide] | 0.01 | < 0.023 | 0.0042 | 0.037 | – | – |
| CC(C)(C)Cc1cnc2nn(-c3cc(NC(=O)N4CC(F)C4)ccc3F)cc2c1 [Compound 21, N-{3-[5-(2,2-dimethylpropyl)-2H-pyrazolo[3,4-b]pyridin-2-yl]-4-fluorophenyl}-3-fluoroazetidine-1-carboxamide] | 0.0077 | < 0.023 | 0.0017 | 0.0065 | – | – |
| CC(C)(C)c1cnc2nn(-c3cc(NC(=O)N4CC(F)C4)ccc3F)cc2c1 [Compound 22, N-(3-{5-tert-butyl-2H-pyrazolo[3,4-b]pyridin-2-yl}-4-fluorophenyl)-3-fluoroazetidine-1-carboxamide] | 0.028 | < 0.023 | 0.0072 | 21 | – | – |
| CCCC(C)c1cnc2nn(-c3cc(NC(=O)N4CC(F)C4)ccc3F)cc2c1 (stereo not shown) [Compound 23, 3-fluoro-N-{4-fluoro-3-[5-(pentan-2-yl)-2H-pyrazolo[3,4-b]pyridin-2-yl]phenyl}azetidine-1-carboxamide] | 0.14 | < 0.023 | 0.078 | 0.11 | – | – |
| CCC(C)(C)c1cnc2nn(-c3cc(NC(=O)N4CC(F)C4)ccc3F)cc2c1 [Compound 24, 3-fluoro-N-{4-fluoro-3-[5-(2-methylbutan-2-yl)-2H-pyrazolo[3,4-b]pyridin-2-yl]phenyl}azetidine-1-carboxamide] | 0.88 | 0.61 | 0.44 | 1 | – | – |
| CCC(C)c1cnc2nn(-c3cc(NC(=O)N4CC(F)C4)ccc3F)cc2c1 (stereo not shown) [Compound 25, N-{3-[5-(butan-2-yl)-2H-pyrazolo[3,4-b]pyridin-2-yl]-4-fluorophenyl}-3-fluoroazetidine-1-carboxamide] | 0.021 | < 0.023 | 0.017 | 0.047 | – | – |
| CC(C)CCc1cnc2nn(-c3cc(NC(=O)N4CC(F)C4)ccc3F)cc2c1 [Compound 27, 3-fluoro-N-{4-fluoro-3-[5-(3-methylbutyl)-2H-pyrazolo[3,4-b]pyridin-2-yl]phenyl}azetidine-1-carboxamide] | 0.033 | < 0.023 | 0.038 | 0.015 | – | – |
| O=C(Nc1ccc(F)c(-n2cc3cc(-c4ccccn4)cnc3n2)c1)N1CC(F)C1 [Compound 28, 3-fluoro-N-{4-fluoro-3-[5-(pyridin-2-yl)-2H-pyrazolo[3,4-b]pyridin-2-yl]phenyl}azetidine-1-carboxamide] | 0.0013 | < 0.023 | 0.001 | 0.002 | – | – |
| O=C(Nc1ccc(F)c(-n2cc3cc(C4CC4)cnc3n2)c1)N1CC(F)(F)C1 [Compound 29, N-(3-{5-cyclopropyl-2H-pyrazolo[3,4-b]pyridin-2-yl}-4-fluorophenyl)-3,3-difluoroazetidine-1-carboxamide] | 0.0082 | < 0.023 | 0.011 | 0.0097 | – | – |
| CC(C)(C)Cc1cnc2nn(-c3cc(NC(=O)N4CC(F)(F)C4)ccc3F)cc2c1 [Compound 32, N-{3-[5-(2,2-dimethylpropyl)-2H-pyrazolo[3,4-b]pyridin-2-yl]-4-fluorophenyl}-3,3-difluoroazetidine-1-carboxamide] | 0.012 | < 0.023 | 0.005 | 0.013 | – | – |
| CC(C)(C)c1cnc2nn(-c3cc(NC(=O)N4CC(F)(F)C4)ccc3F)cc2c1 [Compound 33, N-(3-{5-tert-butyl-2H-pyrazolo[3,4-b]pyridin-2-yl}-4-fluorophenyl)-3,3-difluoroazetidine-1-carboxamide] | 0.29 | 0.28 | 0.72 | 0.56 | – | – |
| CCCC(C)c1cnc2nn(-c3cc(NC(=O)N4CC(F)(F)C4)ccc3F)cc2c1 (stereo not shown) [Compound 34, 3,3-difluoro-N-{4-fluoro-3-[5-(pentan-2-yl)-2H-pyrazolo[3,4-b]pyridin-2-yl]phenyl}azetidine-1-carboxamide] | 0.2 | 0.15 | 0.16 | 0.27 | – | – |
